The subject of this test is interleukin-8 secreted by normal human epidermal keratinocytes (NHEKs). The test can be described thus: Inhibition of IL-8 secretion by NHEKs after stimulation with PMA (anti-irritant test). In kind it is cell-based. To be noted: NHEK, test compounds at 10 μM, NHEKs with 160 nM PMA, 24 hours at 37° C., IL-8 by ELISA. The source says:
Inhibition of the response of superficial epidermal cells to an irritant agent by assay of the interleukin-8 secreted by normal human epidermal keratinocytes (NHEKs) after stimulation with phorbol 12-myristate 13-acetate (PMA) as irritant agent.
This study uses the test developed by Wilmer [Wilmer, J. L. et al., J. invest. Dermatol., 102: 915-922 (1994)]. This test allows the evaluation of the antiirritant potential of various molecules, on a human keratinocyte (NHEK) cell line. In this test, an irritant situation is mimicked by exacerbating the production of IL-8 of the NHEKs by adding PMA to the culture medium, IL-8 being involved in initiating the keratinocyte irritation. The antiirritant effect of a molecule is then measured by means of its inhibitory action with respect to this exacerbated production.
Normal human epidermal keratinocytes (NHEKs) sold by the company Clonetics and distributed in France by the company TEBU are incubated in the presence of 160 nM of PMA for 24 hours at 37° C. In response to the PMA, the production of the chemotactic agent interleukin-8 (IL-8) is measured by enzymatic assay using an assay kit (Elisa D8050) sold by the company R&D. The absorbance values are measured using a microplate reader (MRX/Dynatech) according to the procedures supplied with. the assay kit. […]
In general terms: An ELISA detects its analyte on a solid surface through an enzyme-linked reagent.

`c1ccc(OCCCn2cnc(-c3ccccc3)c2-c2ccccc2)cc1` [3-phenoxypropyl(4,5-diphenylimidazol)-1-yl] showed an inhibition at 10 µM of 32%. For the molecule `c1ccc(COCCCn2cnc(-c3ccccc3)c2-c2ccccc2)cc1` [Example 1, 3-benzyloxypropyl-(4,5-diphenylimidazol)-1-yl], 10 µM produced 41% inhibition.

The inhibition is the drop in the measured response relative to a control, in per cent. High values mean a response far below the control, low ones a response near the control.

(Values after US20040192928A1, “Novel compounds of the family of 3-alkyl-(4,5-diphenyl-imidazol-1-yl) and their use as soothing agents” (priority 2001, published 2004).)
